# Measured values published in US7452997B2 (priority 2004, dated 2008).
# Like-named read-outs stand apart in the source and are kept apart here.
# Legend:
# human CB1 receptor [1] = target: T1, human CB1 receptor (Homo sapiens, UniProt P21554); test: biochemical; format: binding
# T1 construct: expressed in transfected cells; host or cells: SK-N-MC cells, stably transfected with pcDNA3 CB-1 (human); semi-purified membrane pellet
# Summary of the method: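 Radioligand binding was run at 30° C for 90 minutes, pH 7.5 Tris buffer containing 0.5 mg/mL fatty acid free BSA, on semi-purified membranes of stably transfected SK-N-MC cells. Filter-bound radioactivity was scintillation counted, with IC50 obtained by linear regression across compound concentrations.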
# human CB1 receptor [2] = target: T1, human CB1 receptor; test: Functional cell-based assay, CB1 receptor mediated change in CRE β-gal expression (agonist / inverse agonist)
# From the text: (§1) Functional Cell-Based Assay for CB1 or CB2 Agonist and Inverse Agonist Effects on Intra-Cellular Adenylate Cyclase Activity
# (§2) The CB1 and CB2 receptors are G-protein coupled receptors (GPCR) which influence cell function via the Gi-protein. These receptors modulate the activity of intracellular adenylate cyclase which in turn produces the intracellular signal messenger cyclic-AMP (cAMP).
# (§3) At baseline, or during non-ligand bound conditions, these receptors are constitutively active and tonically suppress adenylate cyclase activity. The binding of an agonists causes further receptor activation and produces additional suppression of adenylate cyclase activity. The binding of an inverse agonist inhibits the constitutive activity of the receptors and results in an increase in adenylate cyclase activity.
# (§4) By monitoring intracellular adenylate cyclase activity, the ability of compounds to act as agonists or inverse agonists can be determined.
# (§5) Test compounds were evaluated in SK-N-MC cells which, using standard transfection procedures, were stably transfected with human cDNA for pcDNA3-CRE β-gal and pcDNA3 CB1 receptor (human) or pcDNA3 CB2 receptor (human). By expressing CRE β-gal, the cells produced β-galactosidase in response to CRE promoter activation by cAMP. Cells expressing CRE β-gal and either the human CB1 or CB2 receptor will produce less β-galactosidase when treated with a CB1/CB2 agonist and will produce more β-galactosidase when treated with a CB1/CB2 inverse agonist.
# (§6) The cells were grown in 96-well plates under standard cell culture conditions at 37° C. in a 5% CO2 atmosphere. After 3 days, the media was removed and a test compound in media (wherein the media was supplemented with 2 mM L-glutamine, […] sodium pyruvate, 0.1% low fatty acid FBS (fetal bovine serum) and antibiotics) was added to the cell. The plates were incubated for 30 minutes at 37° C. and the plate cells were then treated with forskolin over a 4-6 hour period, then washed and lysed. The β-galactosidase activity was quantitated using commercially available kit reagents (Promega Corp. Madison, Wis.) and a VMAX Plate Reader (Molecular Devices, Inc).
# (§7) The change in β-galactosidase activity was determined by setting a vehicle treated cell's activity value at 100% and expressing the β-galactosidase activity measured in a corresponding compound treated cell as a percent of the vehicle treated cell activity.
# (§8) The EC50 values for compounds tested were calculated by linear regression and were obtained from studies in which varying compound concentrations were used.
# human CB2 receptor [3] = target: T2, human CB2 receptor (Homo sapiens, UniProt P34972); test: Binding assay, cannabinoid CB2 receptor ([3H]-CP-55,940 displacement); conditions: SK-N-MC cell membranes, radioligand CP-55,940 0.2 nM
# T2 sequence (P34972 whole entry): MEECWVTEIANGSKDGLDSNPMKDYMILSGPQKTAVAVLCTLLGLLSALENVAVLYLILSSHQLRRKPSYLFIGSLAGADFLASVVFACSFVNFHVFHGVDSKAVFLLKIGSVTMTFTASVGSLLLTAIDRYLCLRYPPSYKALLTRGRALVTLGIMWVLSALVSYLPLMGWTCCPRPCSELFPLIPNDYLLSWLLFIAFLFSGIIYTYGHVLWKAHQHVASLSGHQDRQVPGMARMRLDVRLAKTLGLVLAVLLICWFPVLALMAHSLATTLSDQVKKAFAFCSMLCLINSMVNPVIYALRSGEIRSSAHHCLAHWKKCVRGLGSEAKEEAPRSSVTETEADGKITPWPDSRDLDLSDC
# Summary of the method: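 Displacement of [3H]-CP-55,940 (0.2 nM) was measured over 90 min at 30 °C (pH 7.5 Tris/MgCl2/EDTA buffer with BSA), using semi-purified membranes of human CB2-transfected SK-N-MC cells. Bound counts collected on GF/C filters, 10 uM WIN 55,212 as nonspecific control; IC50 from varied concentrations.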
# human CB2 receptor [4] = target: T2, human CB2 receptor; test: Functional cell-based assay, CB2 receptor mediated change in CRE β-gal expression (agonist / inverse agonist); conditions: SK-N-MC cells, forskolin
# From the text: as §1, §2, §3, §4, §5, §6
# For cells expressing CRE β-gal and the CB2 receptor, CB2 agonists reduced β-galactosidase activity in a dose-dependent manner and CB2 inverse agonists increased β-galactosidase activity in a dose-dependent manner.
# as §7, §8
# [5] = Cannabinoid CB2 Receptor Binding IC50, human CB2 receptor
# [6] = inverse agonist, read-out: CB2 Receptor Functional Inverse Agonist EC50
# T1 sequence (P21554 whole entry): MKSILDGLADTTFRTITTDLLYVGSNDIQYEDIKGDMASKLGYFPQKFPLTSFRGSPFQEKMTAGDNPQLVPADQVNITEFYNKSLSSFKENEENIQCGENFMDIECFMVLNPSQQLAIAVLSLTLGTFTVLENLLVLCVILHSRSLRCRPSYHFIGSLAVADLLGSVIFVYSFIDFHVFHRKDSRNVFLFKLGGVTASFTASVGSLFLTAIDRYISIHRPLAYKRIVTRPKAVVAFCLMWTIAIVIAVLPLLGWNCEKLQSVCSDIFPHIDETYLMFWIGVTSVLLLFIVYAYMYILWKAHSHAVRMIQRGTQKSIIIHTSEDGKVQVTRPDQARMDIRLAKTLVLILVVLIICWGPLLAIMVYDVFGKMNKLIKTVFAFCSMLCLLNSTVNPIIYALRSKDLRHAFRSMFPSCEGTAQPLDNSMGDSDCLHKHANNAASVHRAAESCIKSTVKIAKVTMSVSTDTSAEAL
Structure (SMILES),IC50 (human CB1 receptor [1]) [nM],EC50 (human CB1 receptor [2]) [nM],IC50 (human CB2 receptor [3]; [5]) [nM],EC50 (human CB2 receptor [4]; [6]) [nM],"EC50 (human CB2 receptor [4]; agonist, read-out: CB2 Receptor Functional Agonist EC50) [nM]","IC50 (human CB1 receptor [1]; human CB1 receptor, SK-N-MC cell membranes, radioligand CP-55,940 0.2 nM, read-out: Cannabinoid CB1 Receptor Binding IC50) [nM]","EC50 (human CB1 receptor [2]; SK-N-MC cells, CRE β-gal, human CB1 receptor, forskolin, inverse agonist, read-out: CB1 Receptor Functional Inverse Agonist EC50) [nM]","IC50 (human CB2 receptor [3]; human CB2 receptor, read-out: Cannabinoid CB2 Receptor Binding IC50) [nM]"
C[C@@H](NC(=O)c1nn(-c2ccc(Cl)cc2Cl)c2c1CCC/C2=C\c1ccc(F)cc1)c1ccccc1 [compound 296],5,13,,,,,,
CCOC(=O)C1CCc2c(c(C(=O)NC(C)c3ccccc3)nn2Cc2ccccc2)C1 (centres unmarked) [compound 256],260,250,300,,,,,
COc1ccc(-n2nc(C(=O)NC3C4(C)CCC(C4)C3(C)C)c3c2CCCC3)cc1 (centres unmarked) [compound 9],338,2750,11.9,,,,,
"O=C(NN1CCCCC1)c1nn(-c2ccc(Cl)cc2Cl)c2c1CCCC2=Cc1ccc(F)cc1 [Cpd 297, 1-(2,4-dichloro-phenyl)-7-(4-fluoro-benzylidene)-4,5,6,7-tetrahydro-1H-indazole-3-carboxylic acid piperidin-1-ylamide]",13,5,,,,,,
CCOC(=O)C1CCc2c(c(C(=O)NC3C4(C)CCC(C4)C3(C)C)nn2C2CCCCC2)C1 (centres unmarked) [compound 67],300,524,15.5,23,,,,
O=C(NN1CCOCC1)c1nn(-c2ccc(Cl)cc2Cl)c2c1CCC/C2=C\c1ccc(F)cc1 [compound 298],64,4,,,,,,
O=C(NN1CCCCC1)c1nn(-c2ccc(Cl)cc2Cl)c2c1CCC/C2=C\c1ccc(Cl)cc1 [compound 290],25,44,1000,,,,,
CC(NC(=O)c1nn(Cc2ccccc2)c2c1CCCC2c1ccccc1)c1ccccc1 (centres unmarked) [compound 253],25,1940,300,,,,,
CCOC(=O)[C@H]1C2CCC(C2)[C@H]1NC(=O)c1nn(-c2ccc(F)cc2)c2c1CCCC2c1ccccc1 (some centres unmarked) [compound 147],2080,152,1790,,,,,
CCNC(=O)[C@@H]1C2CCC(C2)[C@@H]1NC(=O)c1nn(Cc2ccccc2)c2c1CCCC2 (some centres unmarked) [compound 167],1660,3360,28,,,,,
CC(NC(=O)c1nn(-c2ccc(Cl)cc2Cl)c2c1CCC/C2=C\c1ccc(Cl)cc1)c1ccccn1 (centres unmarked) [compound 320],14,1,,,,,,
CCOC(=O)[C@@H]1CCCC[C@@H]1NC(=O)c1nn(-c2ccc(F)cc2)c2c1CCCC2 [compound 33],58,135,8,,,,,
CCOC(=O)C1C2CCC(C2)C1NC(=O)c1nn(C2CCCCC2)c2c1CCCC2 (centres unmarked) [compound 28],850,2030,7.5,,330,,,
CCOC(=O)[C@@H]1CCc2c(c(C(=O)NC3C4(C)CCC(C4)C3(C)C)nn2-c2ccccc2)C1 (some centres unmarked) [compound 220],,399,230,220,,,,
CCOC(=O)C1CCc2c(c(C(=O)NC3C4CC5CC(C4)CC3C5)nn2Cc2ccccc2)C1 (centres unmarked) [compound 226],7.9,520,5.5,65,,,,
C[C@H](NC(=O)c1nn(-c2ccc(Cl)cc2Cl)c2c1CCCC2=Cc1ccc(F)cc1)C1CCCCC1 [compound 309],47,81,,,,,,
CC1(C)[C@@H]2CC[C@@](C)(C2)[C@H]1NC(=O)c1nn(-c2ccc(Cl)cc2Cl)c2c1CCC/C2=C\c1ccc(Cl)cc1 [compound 292],33,9,60,,,,,

Structure (SMILES),IC50 (human CB1 receptor [1]) [nM],EC50 (human CB1 receptor [2]) [nM],IC50 (human CB2 receptor [3]; [5]) [nM],EC50 (human CB2 receptor [4]; [6]) [nM],"EC50 (human CB2 receptor [4]; agonist, read-out: CB2 Receptor Functional Agonist EC50) [nM]","IC50 (human CB1 receptor [1]; human CB1 receptor, SK-N-MC cell membranes, radioligand CP-55,940 0.2 nM, read-out: Cannabinoid CB1 Receptor Binding IC50) [nM]","EC50 (human CB1 receptor [2]; SK-N-MC cells, CRE β-gal, human CB1 receptor, forskolin, inverse agonist, read-out: CB1 Receptor Functional Inverse Agonist EC50) [nM]","IC50 (human CB2 receptor [3]; human CB2 receptor, read-out: Cannabinoid CB2 Receptor Binding IC50) [nM]"
C[C@H](NC(=O)/C=C/c1nn(Cc2ccccc2)c2c1CCCC2)c1ccccc1 [compound 305],9800,630,7200,,,,,
COc1ccc(-n2nc(C(=O)NCCc3ccc(N)cc3)c3c2CCCC3)cc1 [compound 7],,,,,,3100,3880,3570
CCOC(=O)C1CCCc2c1c(C(=O)NC1C3(C)CCC(C3)C1(C)C)nn2C1CCCCC1 (centres unmarked) [compound 73],760,1740,295,,,,,
O=C(NN1CCOCC1)c1nn(-c2ccc(Cl)cc2Cl)c2c1CCC/C2=C\c1ccc(Cl)cc1 [compound 291],180,10,1700,,,,,
CC12CCC(C1)C(C)(C)C2NC(=O)c1nn(-c2ccc(F)cc2)c2c1CCCC2CCc1ccccc1 (centres unmarked) [compound 151],590,801,30,,,,,
CC12CCC(C1)C(C)(C)C2NC(=O)c1nn(-c2ccc(F)cc2)c2c1CCCC2c1ccccc1 (centres unmarked) [compound 144],220,176,40,,,,,
O=C(NC12CC3CC(CC(C3)C1)C2)c1nn(-c2ccc(F)cc2)c2c1CCCC2c1ccccc1 (centres unmarked) [compound 165],,1030,800,,,,,
CCOC(=O)C1CCc2c(c(C(=O)NC3C4CC5CC(C4)CC3C5)nn2C2CCCCC2)C1 (centres unmarked) [compound 222],280,194,4.9,33,,,,
CCOC(=O)C1CCc2c(C(=O)NC3C4(C)CCC(C4)C3(C)C)nn(C3CCCCC3)c2C1 (centres unmarked) [compound 70],125,1000,16,45.9,,,,
C[C@H](NC(=O)c1nn(-c2ccc(Cl)cc2Cl)c2c1CCCC2=Cc1ccc(Cl)cc1)C1CCCCC1 [compound 321],230,133,600,,,,,
CCOC(=O)C1C2CCC(C2)C1NC(=O)c1nn(Cc2ccccc2)c2c1CCCC2 (centres unmarked) [compound 43],14,295,1,,,,,
CC12CCC(C1)C(C)(C)C2NC(=O)Nc1nn(Cc2ccccc2)c2c1CCCC2 (centres unmarked) [compound 338],1350,6,27,,,,,
C[C@H](NC(=O)c1nn(-c2ccc(Cl)cc2Cl)c2c1CCC/C2=C\c1ccc(Cl)cc1)c1ccccc1 [compound 294],110,140,700,,,,,
C[C@@H](NC(=O)c1nn(-c2ccc(Cl)cc2Cl)c2c1CCC/C2=C\c1ccc(Cl)cc1)C1CCCCC1 [compound 293],6,25,600,,,,,
C[C@@H](NC(=O)c1nn(-c2ccc(Cl)cc2Cl)c2c1CCC/C2=C\c1ccc(F)cc1)C1CCCCC1 [compound 295],3,< 30,,,,,,
CCOC(=O)[C@@H]1CCCC[C@@H]1NC(=O)c1nn(Cc2ccccc2)c2c1CCCC2 (relative stereo) [compound 38],6,103,3.3,,,,,
CCOC(=O)C1CCc2nn(-c3ccccc3)c(C(=O)NC34CC5CC(CC(C5)C3)C4)c2C1 (centres unmarked) [compound 91],,3370,,,,,,
